Holding throughout (type): in vivo
The subject of one data set is mouse. Briefly: LD50 (mouse), acute toxicity. The note with it: in words.
Data set [1] is described as follows: LD50 (mouse), acute toxicity. The note with it: in vivo, mouse.
The subject of the next data set is rats. Kind of data set: Turning rat test (rotation in rats with unilateral 6-OHDA lesion of the medial forebrain bundle). The note with it: for minimal effective dose: Rattus norvegicus, ip, 1 h, i.p., active = more than 100 turns/hour, 5 rats per dose, read-out: Turning rat test minimum active dosage. As for the experimental part:
Female rats weighing 150 g are anaesthetised with pentobarbital (50 mg kg^-1 i.p.) and fixed in a stereotaxic apparatus (David Kopf). A unilateral (right side) injection into the MFB (medial forebrain bundle) of 6-OHDA (6-hydroxy-dopamine), 3 μg as base, dissolved in 4 μl of Ringer solution containing 0.02% ascorbic acid, is carried out through a stainless-steel cannula (diameter 0.3 mm) connected to a microsyringe. The liquid is injected at a speed of 1 μl min^-1 by means of a high precision infusion pump. In order to reach the MFB (medial forebrain bundle), the following coordinates are used: A=+3.8 mm, L (right)=0.9 mm, V=-3 mm according to the Atlas of Konig and Klippel.
After 3 weeks recovery period, the operated rats are injected with apomorphine, 1 mg kg^1- i.p. Those animals showing a regular contralateral (i.e., away from the lesioned side) turning, recorded automatically during 1 hour in a rotometer, are selected for further experiments. At least one week is allowed between each injection of screening compounds.
Drugs which induce rotation are dopamine receptor agonists. If the turning is contralateral (i.e., away from the lesioned side) the drugs are classified as "apomorphine-like", which indicates a direct dopamine-receptor stimulation (postsynaptic). The denervated striatum is more sensitive to dopamine receptor agonistes than the intact one. Agonists therefore affect the denervated striatum more than the intact one. This inbalance results in contralateral turning (rotation).
If the rotation is ipsilateral (i.e., towards the lesioned side), the drugs are classified as "amphetamine-like", which means that they release and/or block the reuptake of dopamine (presynaptic) from nerve terminals on the intact side, whereas they have little if any effect on the striatum with denervated dopamine neurons. The result of this inbalance is an ipsilateral turning.
The total number of ipsilateral or contralateral turns (full rotation around the vertical axes of the body) made by each rat, is automatically recorded over the time (usually 1 hour). 5 rats are injected for each dose and the mean of total turns per hour is determined.
A compound is said active, if it produces more than 100 turns/hour. If a drug induces rotation, but less than 100 turns/hour, it is indicated as slightly active. […] The results are expressed as: […]
Minimal effective dose--if the drug is active

The structures appear in SMILES notation. Structures can show the parent of a compound that is named as a salt.

By LD50 is commonly meant the dose expected to kill half of the subjects tested. Low readings indicate greater toxicity, high ones lower toxicity.

Take `CCn1cc(C(=O)O)c(=O)cc1-c1ccc2ccccc2c1` [1-ethyl-1,4-dihydro-6-(2-naphthyl)-4-oxonicotinic acid]: the “LD50 compared with d-amphetamine and d-methamphetamine” value with mouse (versus d-amphetamine and d-methamphetamine) is recorded as “substantially lower LD50”. For the same compound, the “LD50 compared with nomifensin” value in the data set with mouse (versus nomifensin) is “about the same LD50”. In data set [1] (po), this compound returned a 50% lethal dose (LD50) of 170 mg/kg. In the data set on rats, the minimal effective dose amounted to 1 mg/kg. For the same compound, the “strength of action compared with d-amphetamine and d-methamphetamine” value in the data set with rats (in words, versus d-amphetamine and d-methamphetamine, see Table I) is “about the same strength of action”. In the data set with rats (in words, versus nomifensin, see Table I), the “action compared with nomifensin” value is reported as “substantially superior to nomifensin”.

Regarding `CN1Cc2c(N)cccc2C(c2ccccc2)C1` (stereo not drawn) [Nomifensin, 8-amino-1,2,3,4-tetrahydro-2-methyl-4-phenylisoquinoline], in data set [1] (po), the median lethal dose (LD50) lay in the range of 300 to 600 mg/kg. Further, the minimal effective dose in the data set on rats was 3 mg/kg.

Take `C[C@H](N)Cc1ccccc1` [d-Amphetamine . 1/2 H2 SO4]: the LD50 in data set [1] (iv) was determined as 14 mg/kg; in data set [1] (po) it was 35 mg/kg; in data set [1] (sc) it was 22 mg/kg. The minimal effective dose with rats is 1 mg/kg.

For `CN[C@@H](C)Cc1ccccc1` [d-Methamphetamine . HCl], the LD50 came to 9.5 mg/kg in data set [1] (iv) and 14 mg/kg in data set [1] (sc). Also, the minimal effective dose in the data set with rats was determined as 1 mg/kg.

(Values after patent publication US4314063A, “1-Ethyl-1,4,5,6-tetrahydro-6-(2-naphthyl)-4-oxo-nicotinic acid and lower alkyl esters thereof” (Hoffmann-La Roche Inc., priority 1981, dated 1982).)
